Measurements taken from US8501755B2, “Tetrahydropyridothienopyrimidine compounds and methods of use thereof” (Bayer Intellectual Property GmbH, priority 2006, dated 2013).

Legend:
Type in all cases: cell-based
A431 cells = assay: In vitro tumor cell proliferation assay (Cell Titer-Glo) in A431 cells; conditions: Homo sapiens, A-431, 72 h, A431 human epidermoid carcinoma overexpressing HER1; 72 hours exposure; read-out: IC50, activities in A431 cell lines
Outline: (§1)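 Viability after 72 h drug exposure at 37 °C was read as CellTiter-Glo ATP luminescence, giving IC50. Cells (2.5×10^3/well, RPMI + 10% FBS) were compound-treated one day post-seeding, 0.1% DMSO final: A431 overexpresses HER1, N87 overexpresses HER2 and HER1.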

N87 = assay: In vitro tumor cell proliferation assay (Cell Titer-Glo) in N87 cells; conditions: N87 human gastric carcinoma overexpressing HER2 and HER1; 72 hours exposure; read-out: IC50, activities in N87 cell lines
Outline: as §1

H1975 cells = assay: In vitro tumor cell proliferation assay (Cell Titer-Glo) in H1975 cells; conditions: NCI-H1975; H1975 human NSCLC expressing mutant HER1 (L858R,T790M); 72 hours exposure; read-out: IC50, activities in H 1975 cell lines
Outline: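 After 72 h compound exposure at 37° C (top 10 uM down to 64 pM, 0.1% DMSO), viability of EGFR L858R/T790M-mutant H1975 cells was read as ATP luminescence.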

O=C(/C=C/CN1CCCC1)N1CCc2c(sc3ncnc(Nc4cccc(Br)c4)c23)C1 [Example 194, N-(3-bromophenyl)-7-[(2E)-4-pyrrolidin-1-ylbut-2-enoyl]-5,6,7,8-tetrahydropyrido [4′,3′:4,5]thieno[2,3-d]pyrimidin-4-amine]
IC50 (A431 cells): < 200 nM | IC50 (N87): < 200 nM | IC50 (H1975 cells): < 200 nM

O=C(/C=C/CN1CCCCC1)N1CCc2c(sc3ncnc(Nc4ccc(Cl)c(Cl)c4)c23)C1 [Example 195, N-(3,4-dichlorophenyl)-7-[(2E)-4-piperidin-1-ylbut-2-enoyl]-5,6,7,8-tetrahydropyrido [4′,3′:4,5]thieno[2,3-d]pyrimidin-4-amine]
IC50 (A431 cells): < 200 nM | IC50 (N87): < 200 nM | IC50 (H1975 cells): < 200 nM

O=C(/C=C/CN1CCCCC1)N1CCc2c(sc3ncnc(Nc4cccc(Br)c4)c23)C1 [Example 196, N-(3-bromophenyl)-7-[(2E)-4-piperidin-1-ylbut-2-enoyl]-5,6,7,8-tetrahydropyrido [4′,3′:4,5]thieno[2,3-d]pyrimidin-4-amine]
IC50 (A431 cells): < 200 nM | IC50 (N87): < 200 nM | IC50 (H1975 cells): 200 to 1000 nM

CCN(CC)C/C=C/C(=O)N1CCc2c(sc3ncnc(Nc4cccc(Br)c4)c23)C1 [Example 197, N-(3-bromophenyl)-7-[(2E)-4-(diethylamino)but-2-enoyl]-5,6,7,8-tetrahydropyrido [4′,3′:4,5]thieno[2,3-d]pyrimidin-4-amine]
IC50 (A431 cells): < 200 nM | IC50 (N87): < 200 nM | IC50 (H1975 cells): 200 to 1000 nM

CN(C/C=C/C(=O)N1CCc2c(sc3ncnc(Nc4cccc(Br)c4)c23)C1)C(C)(C)C [Example 198, N-(3-bromophenyl)-7-{(2E)-4-[tert-butyl(methyl)amino]but-2-enoyl}-5,6,7,8-tetrahydropyrido [4′,3′:4,5]thieno[2,3-d]pyrimidin-4-amine]
IC50 (A431 cells): < 200 nM | IC50 (N87): < 200 nM | IC50 (H1975 cells): 200 to 1000 nM

CN(C/C=C/C(=O)N1CCc2c(sc3ncnc(Nc4ccc(Cl)c(Cl)c4)c23)C1)C(C)(C)C [Example 199, 7-{(2E)-4-[tert-butyl(methyl)amino]but-2-enoyl}-N-(3,4-dichlorophenyl)-5,6,7,8-tetrahydropyrido [4′,3′:4,5]thieno[2,3-d]pyrimidin-4-amine]
IC50 (A431 cells): < 200 nM | IC50 (N87): < 200 nM | IC50 (H1975 cells): < 200 nM

CCN(C/C=C/C(=O)N1CCc2c(sc3ncnc(Nc4ccc(Cl)c(Cl)c4)c23)C1)C1CCCCC1 [Example 200, 7-{(2E)-4-[cyclohexyl(ethyl)amino]but-2-enoyl}-N-(3,4-dichlorophenyl)-5,6,7,8-tetrahydropyrido [4′,3′:4,5]thieno[2,3-d]pyrimidin-4-amine]
IC50 (A431 cells): 200 to 1000 nM | IC50 (N87): < 200 nM | IC50 (H1975 cells): 200 to 1000 nM

CCN(C/C=C/C(=O)N1CCc2c(sc3ncnc(Nc4cccc(Br)c4)c23)C1)C1CCCCC1 [Example 201, N-(3-bromophenyl)-7-{(2E)-4-[cyclohexyl(ethyl)amino]but-2-enoyl}-5,6,7,8-tetrahydropyrido [4′,3′:4,5]thieno[2,3-d]pyrimidin-4-amine]
IC50 (A431 cells): 200 to 1000 nM | IC50 (N87): < 200 nM | IC50 (H1975 cells): 200 to 1000 nM

CN(C/C=C/C(=O)N1CCc2c(sc3ncnc(Nc4cccc(Br)c4)c23)C1)C1CCCCC1 [Example 202, N-(3-bromophenyl)-7-{(2E)-4-[cyclohexyl(methyl)amino]but-2-enoyl}-5,6,7,8-tetrahydropyrido [4′,3′:4,5]thieno[2,3-d]pyrimidin-4-amine]
IC50 (A431 cells): 200 to 1000 nM | IC50 (N87): < 200 nM | IC50 (H1975 cells): 200 to 1000 nM

CN(C/C=C/C(=O)N1CCc2c(sc3ncnc(Nc4ccc(Cl)c(Cl)c4)c23)C1)C1CCCCC1 [Example 203, 7-{(2E)-4-[cyclohexyl(methyl)amino]but-2-enoyl}-N-(3,4-dichlorophenyl)-5,6,7,8-tetrahydropyrido [4′,3′:4,5]thieno[2,3-d]pyrimidin-4-amine]
IC50 (A431 cells): 200 to 1000 nM | IC50 (N87): < 200 nM | IC50 (H1975 cells): 1000 to 10000 nM

CCN(C/C=C/C(=O)N1CCc2c(sc3ncnc(Nc4cccc(Br)c4)c23)C1)C(C)C [Example 204, N-(3-bromophenyl)-7-{(2E)-4-[ethyl(isopropyl)amino]but-2-enoyl}-5,6,7,8-tetrahydropyrido [4′,3′:4,5]thieno[2,3-d]pyrimidin-4-amine]
IC50 (A431 cells): 200 to 1000 nM | IC50 (N87): < 200 nM | IC50 (H1975 cells): 200 to 1000 nM

CCN(C/C=C/C(=O)N1CCc2c(sc3ncnc(Nc4ccc(Cl)c(Cl)c4)c23)C1)C(C)C [Example 205, N-(3,4-dichlorophenyl)-7-{(2E)-4-[ethyl(isopropyl)amino]but-2-enoyl}-5,6,7,8-tetrahydropyrido [4′,3′:4,5]thieno[2,3-d]pyrimidin-4-amine]
IC50 (A431 cells): < 200 nM | IC50 (N87): < 200 nM | IC50 (H1975 cells): < 200 nM

CC1CCCN1C/C=C/C(=O)N1CCc2c(sc3ncnc(Nc4cccc(Br)c4)c23)C1 (stereo not drawn) [Example 207, N-(3-bromophenyl)-7-[(2E)-4-(2-methylpyrrolidin-1-yl)but-2-enoyl]-5,6,7,8-tetrahydropyrido [4′,3′:4,5]thieno[2,3-d]pyrimidin-4-amine]
IC50 (A431 cells): 200 to 1000 nM | IC50 (N87): < 200 nM | IC50 (H1975 cells): 200 to 1000 nM

CC(C)N(C/C=C/C(=O)N1CCc2c(sc3ncnc(Nc4cccc(Br)c4)c23)C1)C(C)C [Example 208, N-(3-bromophenyl)-7-[(2E)-4-(diisopropylamino)but-2-enoyl]-5,6,7,8-tetrahydropyrido [4′,3:4,5]thieno[2,3-d]pyrimidin-4-amine]
IC50 (A431 cells): 200 to 1000 nM | IC50 (N87): < 200 nM | IC50 (H1975 cells): 200 to 1000 nM

CC(C)N(C/C=C/C(=O)N1CCc2c(sc3ncnc(Nc4ccc(Cl)c(Cl)c4)c23)C1)C(C)C [Example 209, N-(3,4-dichlorophenyl)-7-[(2E)-4-(diisopropylamino)but-2-enoyl]-5,6,7,8-tetrahydropyrido [4′,3′:4,5]thieno[2,3-d]pyrimidin-4-amine]
IC50 (A431 cells): 200 to 1000 nM | IC50 (N87): < 200 nM | IC50 (H1975 cells): 200 to 1000 nM
